Among the test systems are IGROV-1; NCI-H522; U-251; RPMI-8226; UACC-62; HCT-116; SK-MEL-2; SN12C; KM12; SNB-19; SR; SK-OV-3; HOP-92; OVCAR-8; SK-MEL-28; LOX IMVI; UO-31; OVCAR-4; A498.
What all share (assay): DTP human tumour cell line panel, 48 h

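All cell lines were grown in 96-well plates and treated with compound for 48 hours. Here, GI50 denotes the concentration required for 50% inhibition of growth.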 The source made the active and inactive calls. No stated cut-off is given here; in the data, active = GI50 up to about 1.1 µM and inactive = higher.

As for `N#CN1CCC=C(c2cc3ccccc3[nH]2)C1`, the GI50 (in general, the concentration that inhibits growth by half) with IGROV-1 is 277 µM (inactive); in the experiment on NCI-H522, 109 µM (inactive); in the experiment on U-251, 434 µM (inactive); in the experiment with RPMI-8226 it was 170 µM (inactive); with UACC-62, 201 µM (inactive); in the experiment on HCT-116, 285 µM (inactive). Moreover, the GI50 with SK-MEL-2 is 279 µM (inactive); in the experiment on SN12C, 356 µM (inactive); in the experiment with KM12 it was 161 µM (inactive); in the experiment on SNB-19 it was > 448 µM (inactive); in the experiment with SR it was 159 µM (inactive); in the experiment with SK-OV-3 it was > 448 µM (inactive). In addition, the GI50 with HOP-92 was 146 µM (inactive); in the experiment on OVCAR-8 it was 300 µM (inactive); in the experiment on SK-MEL-28 it was 382 µM (inactive); with LOX IMVI it was 230 µM (inactive).

Take `O=c1[nH]nc(Cc2ccccc2)n1-n1cnnc1`: the GI50 with IGROV-1, in the experiment with NCI-H522, with U-251, with RPMI-8226, in the experiment on UACC-62 and with UO-31 was > 100 µM (inactive) each time. The GI50 with HCT-116, in the experiment on SK-MEL-2, with OVCAR-4, in the experiment with SN12C, in the experiment with KM12 and in the experiment on SNB-19 was > 100 µM (inactive) each time. The GI50 in the experiment on SR, in the experiment on SK-OV-3, with HOP-92, in the experiment with OVCAR-8, with SK-MEL-28 and in the experiment on LOX IMVI was > 100 µM (inactive) each time.

With `CC1(C)C(=O)C(C)(C)C1=NNC(N)=S`, the GI50 with IGROV-1, with NCI-H522, with U-251, with RPMI-8226, with UACC-62 and in the experiment with UO-31 was > 100 µM (inactive) throughout. Besides, the GI50 with HCT-116, in the experiment on OVCAR-4, in the experiment on SN12C, with KM12, in the experiment on SNB-19 and in the experiment on SR was > 100 µM (inactive) each time. Moreover, the GI50 in the experiment on SK-OV-3, with HOP-92, in the experiment on OVCAR-8, in the experiment with SK-MEL-28 and in the experiment on LOX IMVI was > 100 µM (inactive) in each case.

With `CCOC(=O)C1C(NC(N)=O)N(Cc2ccccc2)C(=O)N1Cc1ccccc1` (stereo not drawn), the GI50 was > 100 µM (inactive) in the experiment with IGROV-1; > 100 µM (inactive) with NCI-H522; 17.3 µM (inactive) in the experiment on U-251; > 100 µM (inactive) in the experiment with RPMI-8226; > 100 µM (inactive) with UACC-62; > 100 µM (inactive) in the experiment with UO-31. Also, the GI50 in the experiment with HCT-116, in the experiment with SK-MEL-2, with OVCAR-4, with KM12, with SNB-19 and with SR was > 100 µM (inactive) throughout. For the same compound, the GI50 in the experiment on SK-OV-3, in the experiment on HOP-92, in the experiment on OVCAR-8, in the experiment with SK-MEL-28 and with LOX IMVI was > 100 µM (inactive) in each case.

Consider `CCOC(=O)C(=O)Nc1c(C)cccc1CC`, for which the GI50 in the experiment on IGROV-1, in the experiment with NCI-H522, in the experiment with U-251, in the experiment with RPMI-8226, with UACC-62 and in the experiment with UO-31 was > 100 µM (inactive) each time. For the same compound, the GI50 with HCT-116, in the experiment with SK-MEL-2, in the experiment with OVCAR-4, in the experiment on SN12C, in the experiment on KM12 and in the experiment with SNB-19 was > 100 µM (inactive) each time. Also, the GI50 with SR, in the experiment on SK-OV-3, in the experiment with HOP-92, with OVCAR-8, in the experiment on SK-MEL-28 and in the experiment with LOX IMVI was > 100 µM (inactive) in each case.

Consider `O=c1c2ccccc2nc2n1-c1ccccc1SC2`, for which the GI50 with IGROV-1 was 66.5 µM (inactive); in the experiment with NCI-H522, 20.5 µM (inactive); in the experiment with U-251, 84.7 µM (inactive); in the experiment on RPMI-8226, 24.3 µM (inactive); with UACC-62, 33.7 µM (inactive); in the experiment on UO-31, 48.2 µM (inactive). The GI50 in the experiment with HCT-116 was 47.2 µM (inactive); in the experiment on SK-MEL-2, > 100 µM (inactive); in the experiment on OVCAR-4, 64.3 µM (inactive); in the experiment on A498, 47.9 µM (inactive); with SN12C, 51.2 µM (inactive); in the experiment on KM12, 29.5 µM (inactive). The GI50 in the experiment with SNB-19 is > 100 µM (inactive); in the experiment on SK-OV-3, > 100 µM (inactive); in the experiment on HOP-92, 55.1 µM (inactive); with OVCAR-8, 38 µM (inactive); with SK-MEL-28 it was 71.3 µM (inactive); with LOX IMVI, > 100 µM (inactive).

Consider `O=C(Cn1cc(-c2ccccc2)nn1)NC1CCCC1`, for which the GI50 with IGROV-1, in the experiment with NCI-H522, in the experiment with U-251, in the experiment with RPMI-8226, in the experiment with HCT-116 and in the experiment with SK-MEL-2 was > 100 µM (inactive) in each case. The GI50 with OVCAR-4, in the experiment on SN12C, in the experiment on KM12, with SNB-19, in the experiment on SR and in the experiment on HOP-92 was > 100 µM (inactive) throughout. The GI50 in the experiment with OVCAR-8, with SK-MEL-28 and in the experiment with LOX IMVI was > 100 µM (inactive) in each case.

Regarding `CCOC(=O)C1=C(Nc2ccc(NC3=C(C(=O)OCC)C(=O)CS3)cc2)SCC1=O`, the GI50 in the experiment with IGROV-1 is 24.3 µM (inactive); in the experiment on NCI-H522, 13.7 µM (inactive); in the experiment on U-251, 25.2 µM (inactive); in the experiment on RPMI-8226, 18.5 µM (inactive); with UACC-62, 16.9 µM (inactive); in the experiment on UO-31 it was 17.5 µM (inactive). Further, the GI50 in the experiment with HCT-116 was 18.5 µM (inactive); in the experiment with SK-MEL-2, 16.5 µM (inactive); with OVCAR-4 it was 30.9 µM (inactive); in the experiment on A498, 20.5 µM (inactive); in the experiment on SN12C it was 19.5 µM (inactive); in the experiment on KM12 it was 21.5 µM (inactive). The GI50 in the experiment on SNB-19 was 32.2 µM (inactive); with SK-OV-3 it was 30 µM (inactive); with HOP-92, 24.6 µM (inactive); with OVCAR-8, 27 µM (inactive); with SK-MEL-28, 16.8 µM (inactive); in the experiment with LOX IMVI, 14.2 µM (inactive).

As for `O=[N+]([O-])c1ccc2nc3ccscc-3c2c1`, the GI50 is 27.4 µM (inactive) in the experiment with IGROV-1; 12.4 µM (inactive) in the experiment with NCI-H522; 7.76 µM (inactive) in the experiment on U-251; 7.08 µM (inactive) in the experiment on RPMI-8226; 21.4 µM (inactive) in the experiment on UACC-62; 8.13 µM (inactive) in the experiment on UO-31. Moreover, the GI50 in the experiment on SK-MEL-2 is 6.75 µM (inactive); in the experiment on OVCAR-4, 15.5 µM (inactive); with A498, 8.36 µM (inactive); in the experiment on KM12, 7.52 µM (inactive); in the experiment with SNB-19, 6.98 µM (inactive); in the experiment on SK-OV-3, 30.7 µM (inactive). Further, the GI50 with HOP-92 was 10.8 µM (inactive); in the experiment with SK-MEL-28, 27.8 µM (inactive); in the experiment with LOX IMVI it was 18.7 µM (inactive).

For `Sc1nnc(-c2ccccc2Nc2ccccc2-c2nnc(S)n2-c2ccccc2)n1-c1ccccc1`, the GI50 in the experiment on IGROV-1 was 16.4 µM (inactive); in the experiment on NCI-H522 it was 26.7 µM (inactive); with U-251 it was 30.1 µM (inactive); with RPMI-8226, 20 µM (inactive); in the experiment with UACC-62, 58.3 µM (inactive); with UO-31 it was 44.6 µM (inactive). The GI50 is 63.1 µM (inactive) in the experiment with HCT-116; 27 µM (inactive) in the experiment with SK-MEL-2; 40.4 µM (inactive) with OVCAR-4; 26.5 µM (inactive) in the experiment on SN12C; 51.6 µM (inactive) in the experiment with KM12; 46.9 µM (inactive) with SNB-19. Besides, the GI50 with SR is 37 µM (inactive); in the experiment on HOP-92, 17.8 µM (inactive); with OVCAR-8, 72.6 µM (inactive); in the experiment with SK-MEL-28 it was 19.5 µM (inactive); with LOX IMVI, 42.5 µM (inactive).

Regarding `O=C(NN1C(=O)CSC1c1ccco1)c1ccncc1` (stereo not drawn), the GI50 in the experiment on IGROV-1, in the experiment with NCI-H522, with U-251, with RPMI-8226, in the experiment on UACC-62 and in the experiment on UO-31 was > 100 µM (inactive) each time. For the same compound, the GI50 in the experiment with HCT-116, with SK-MEL-2, in the experiment with OVCAR-4, with A498, with SN12C and in the experiment on KM12 was > 100 µM (inactive) in each case. In addition, the GI50 in the experiment on SNB-19, in the experiment with SK-OV-3, in the experiment with HOP-92, in the experiment on OVCAR-8 and in the experiment with SK-MEL-28 was > 100 µM (inactive) each time.

Consider `O=C1/C(=C/c2cccc([N+](=O)[O-])c2)COc2ccccc21`, for which the GI50 was 7.85 µM (inactive) in the experiment with IGROV-1; 1.67 µM (inactive) in the experiment with NCI-H522; 2.62 µM (inactive) in the experiment with U-251; 1.01 µM (active) with RPMI-8226; 1.67 µM (inactive) in the experiment on UACC-62; 15.2 µM (inactive) with UO-31. The GI50 in the experiment with HCT-116 was 1.76 µM (inactive); in the experiment on SK-MEL-2, 6.1 µM (inactive); with OVCAR-4 it was 2.49 µM (inactive); in the experiment on A498 it was 40.8 µM (inactive); with KM12, 2.5 µM (inactive); with SNB-19 it was 2.82 µM (inactive). Also, the GI50 in the experiment with SK-OV-3 was 30.2 µM (inactive); in the experiment on HOP-92, 19.1 µM (inactive); in the experiment with OVCAR-8, 2.84 µM (inactive); with SK-MEL-28 it was 2.92 µM (inactive); in the experiment on LOX IMVI, 1.8 µM (inactive).
